From patent US20240299345A1, “GINKGOLIDE B AND ITS DERIVATIVES FOR INHIBITING AND/OR REVERSING AGING” (CHINA MEDICAL UNIVERSITY, priority 2023, published 2024)

Legend:
Assay type in all cases: in vivo, mouse
[1] = system: gastrocnemius (GA) muscle; experiment: Ex vivo muscle contractility and fatigability of GA muscle from treated aged mice; details: GB 2 months
Method: For the ex vivo muscle function test, the isolated right side gastrocnemius (GA) muscle were incubated in Krebs buffer at room temperature and with 95% O2 and 5% CO2 for five minutes. GA muscle received stimuli three times under the optimal length to evaluate twitch force. Three 150 Hz continuous stimuli were given to evaluate tetanic force. Twitch force and tetanic force were normalized to the cross-section area (CSA) of GA muscle. GA muscle fatigue was measured by repeated isometric tetanic contraction every 5 seconds for a total of 60 contractions. Five minutes and ten minutes after fatigue protocol, the maximal tetanic force was measured to assess post-fatigue recovery. All of the results were recorded with the Dynamic Muscle Control system (DMC v5.4; Aurora Scientific, Inc.), and results were analyzed by the Dynamic Muscle Analysis system (DMA v3.2; Aurora Scientific, Inc.).

[2] = system: IL-6, IFN-γ; F4/80, CD86, CD206 cells; experiment: Tissue inflammatory cytokines (real-time PCR) and bone marrow macrophage IHC in aged mice
Method: RNAs were purified by using the TRIzol® (#15596018, Invitrogen) and chloroform method (#C7559, Sigma-Aldrich) and reversed transcribed using High-Capacity cDNA Reverse Transcription Kit (#4368814, Applied Biosystems, Foster City, CA, USA). The quantitative RT-PCR was conducted with universal probe system (Roche Life Science, Indianapolis, IN, USA) by using a QuantStudio™ 7 Flex Real-Time PCR System (Applied Biosystems) and was normalized by the expression of GAPDH.

GA muscle nuclei = experiment: Single-nucleus RNA sequencing of GA muscle
Method: Single-nucleus isolation was performed as previously described 41. GA muscles were isolated from mice immediately following euthanasia. The muscles were minced and homogenized with homogenization buffer, 0.25M sucrose and 1% BSA diluted in Mg^2+-free, Ca^2+-free, RNase-free PBS (#AM9624, Invitrogen, Grand Island, NY, USA). The homogenates were incubated with 2.5% Triton-X100/RNase-free PBS at a 1:6 ratio for five minutes. After being filtered through a 100-um strainer, samples were centrifuged at 3000×g for 10 min at 4° C., resuspended in 2% BSA/RNase-free PBS, and then filtered through a 40-μm strainer again. Nuclei were labeled by DAPI with 0.2 U/μL RNase inhibitor (#N8080119, Thermo Fisher Scientific). Labeled nuclei were sorted by FACS Aria II Cell Sorter with 70 μm nozzle (BD Biosciences, San Jose, CA, USA) into 2% BSA/RNase-free PBS with RNase inhibitor. Isolated nuclei were observed by confocal fluorescent microscope (Leica TCS SP8, Wetzlar, Germany) to confirm integrity. To adjust the optimal concentration of nuclei for the 10X Chromium system, isolated nuclei were counted and diluted or concentrated by centrifugation at 250×g for 5 min at 4° C. Single-nucleus RNA-sequencing libraries were constructed by the Chromium Single Cell 3′ reagent kit v2 (10X Genomics, Pleasanton, CA, USA) per the manufacturer's protocol. Following the library preparation, the libraries were sequenced on the NovaSeq 6000 System (Illumina, San Diego, CA, USA) and the 10x Genomics cellranger count pipeline produced 6072 single-nucleus transcriptomes (2128, 2015 and 1929 transcriptomes for Young+Vehicle, Aged+Vehicle, and Aged+GB groups) with 25453, 27,741, and 34,120 reads per nuclei, and 1018, 923, and 1061 genes per nuclei for Young+Vehicle, Aged+Vehicle, and Aged+GB groups respectively.
The single-cell feature-barcode matrices from 10x Genomics cellranger count pipeline were imported into R version 4.1.3 and processed with Seurat 4.2.0. Next, ambient RNA was corrected by SoupX package43. […] Cell cycle genes were corrected for as described in Seurat's Cell-Cycle Scoring and Regression vignette. […] All remaining single-nuclei of each sample were then processed with dimension reduction and Louvain clustering as per Seurat's standard vignette. A combined Seurat object was also created following Seurat's integration protocol as described in Seurat's scRNA-seq integration using default parameters. Dimension reduction and clustering were also performed on the combined dataset as described above. Clusters were annotated using established cell type markers. […]

[3] = system: 20-month-old female C57BL/6 mice; experiment: Lifespan and cancer incidence analysis, lifelong GB from 20 months of age
Source text: The mice were not involved in any experiments to maximally reduce potential interference and stress to animals.

CC1C(=O)OC2C(O)C34C5CC(C(C)(C)C)C36C(OC(=O)C6O)OC4(C(=O)O5)C12O (stereo not shown) [GB, Ginkgolide B]
absolute tetanic force [1]: significantly enhanced
absolute twitch force [1]: significantly enhanced
time to maximum force ([1]; p=0.0003): reversed the increased time to maximum force to the youth levels
specific force (normalized to muscle mass) ([1]; p=0.1161 and 0.1935): modest increased
fatigue resistance or recovery rate ([1]; p=0.99 at five and ten minutes): did not alter
inflammatory cytokines IL-6 and IFN-γ in multiple tissues ([2]; GB 2 months, real-time PCR): downregulated
CD86+ pro-inflammatory M1 macrophages ([2]; femur bone marrow IHC): decrease
CD206+ anti-inflammatory M2 macrophages ([2]; femur bone marrow IHC): increased
aging-related accumulation of bone marrow F4/80+ cells ([2]; femur bone marrow IHC): reversed
reversal of aging-related changes in nucleus proportion (GA muscle nuclei; 8/14 nuclear types, GA muscle of aged mice): 57%
expression levels of Runx1 in myonucleus and number of aging-elicited Runx1+ Type 2b myonuclei (GA muscle nuclei; GA muscle of aged mice): reduced
aging-related changes in the numbers and proportion of myonuclei (GA muscle nuclei; covering all 5 myonucleus subclusters altered by aging): reversed
number of Ptprc+ immune cells in skeletal muscle (GA muscle nuclei; particularly M2 and M2-like proliferating macrophages): increased
age at 50% cumulative cancer incidence ([3]; GB group, vehicle 891 days, p=0.0002 log-rank): 1025 days
aging-associated mortality ([3]; GB vs vehicle aged mice): delayed
hazard ratio by Mantel-Haenszel ([3]; GB vs vehicle aged mice): 0.4577
hazard ratio by log-rank test ([3]; GB vs vehicle aged mice): 0.3526
macroscopic tumors detected by necropsy ([3]; GB-aged mice compared with vehicle group): less macroscopic tumors
median lifespan extension ([3]; from the inception of GB administration at 20 months, 12 mg/kg daily, p=0.0002 log-rank, 0.0064 Gehan-Breslow-Wilcoxon): 30%
lifespan extension (summary statement) ([3]; lifelong oral GB in mice starting from 20 months old): 20%
median lifespan extensions by tumor incidence ([3]; p=0.0011 and 0.03 by log-rank test): observed in both tumor and non-tumor cohorts
extension of mean maximal lifespans of the 10% and 20% longest-lived mice ([3]; p=0.0286 and 0.0006): around 55 days
